The subject of this test is Sprague-Dawley rats. The experiment in a line: Copulatory activity (sexual behaviour) test in male rats with very short ejaculation latency. The format is in vivo, rat. The following applies: for ejaculation latency (EL) / intromission frequency (IF) / intromission latency (IL) / mount frequency (MF) / mount latency (ML) / postejaculatory interval (PEI): 45 min before test, mean ± SEM (n = 8-10). How it is done:
The resulting extract was solubilised in Tween 80 (10%) and water and administered to test animals through a gastric probe, in a volume of 5 ml/kg, at different doses, 45 minutes before the in vivo test. Sprague-Dawley rats were used, both males (weighing approx. 220 g) and females (weighing approx. 160 g), from Harlan Italy (Udine, Italy). The animals were housed under controlled temperature and humidity conditions (22±1° C., 60% humidity), with 12 hours inverted light-darkness cycle, with lights on at 7 a.m. Females were ovariectomized and subcutaneously injected with estradiol valerate (500 μg) and progesterone (2 mg) 48 hours after, to induce estrus. Male rats with very short ejaculation latency time were chosen through starting screening consisting of 7 pre-tests [A. Ågmo, Male rat sexual behavior, Brain Research Protocols 1: 203-209, 1997]. The resulting extract according to Example II or rosmarinic acid were solubilised in Tween 80 (10%) and water and administered to animals, by gastric probe, in a volume of 5 ml/kg, at different doses, 45 minutes before carrying out all the in vivo tests. Sexual behaviour was evaluated under quite conditions, with feeble red light, according to the standard procedure [A. Ågmo, Male rat sexual behavior, Brain Research Protocols 1: 203-209, 1997]. The main parameters recorded during the test were: 1) mount latency (ML); 2) intromission latency (IL); 3) ejaculation latency (EL); 4) postejaculatory interval (PEI); 5) mount frequency (MF); 6) intromission frequency (IF).

Where [1] appears, read: rosmarinic acid 10 mg/kg by gastric probe.
The mark [2] stands for this setting: rosmarinic acid 20 mg/kg by gastric probe.

Entries after “also recorded” stand apart in the source; their conditions may differ.

As to `O=C(/C=C/c1ccc(O)c(O)c1)O[C@H](Cc1ccc(O)c(O)c1)C(=O)O` [Rosmarinic acid, rosmarinic acid], under setting [1], the “ejaculation latency (EL)” value is 1282.2 ± 90.4 s, the “intromission frequency (IF)” value stood at 19.8 ± 1.2 n°, the “intromission latency (IL)” value turned out to be 393.9 ± 89.8 s and the “mount frequency (MF)” value is 1.6 ± 0.3 n°. Further, under setting [1], the “mount latency (ML)” value was found to be 382.4 ± 93.6 s and the “postejaculatory interval (PEI)” value came to 548.5 ± 45.5 s. Under setting [2], the “ejaculation latency (EL)” value was 1493.1 ± 81.9 s, the “intromission frequency (IF)” value was determined as 27.3 ± 0.7 n°, the “intromission latency (IL)” value was found to be 408.4 ± 48.6 s and the “mount frequency (MF)” value was found to be 1.1 ± 0.1 n°. Under setting [2], the “mount latency (ML)” value came out at 425.8 ± 83.2 s and the “postejaculatory interval (PEI)” value stood at 602.2 ± 102.4 s. For the same compound, the “activity on copulatory activity / ejaculation latency compared with the extract (in words)” value (rosmarinic acid, doses of 10 and 20 mg/kg, same experimental conditions) is reported as “equivalent activity to that of the extract; also recorded: same results”.
